This is an account of results in paper PMC3020970, “K70Q Adds High-Level Tenofovir Resistance to “Q151M Complex” HIV Reverse Transcriptase through the Enhanced Discrimination Mechanism” (PLoS ONE, 2011).

Like-named read-outs stand apart in the source and are kept apart here. A value given as a limit tells only on which side of the number the result lay.

Common to all, as to assay type: cell-based
The test system of assay [1] is HIV-1 NL4-3 strain (WT). Put plainly: microbe, parasite or virus in culture. The procedure:
(§1) Susceptibilities to various RT inhibitors were determined using the MAGIC-5 cells which are HeLa cells stably transfected with a β-galactosidase gene under the control of an HIV long terminal repeat promoter, and with vectors that express the CD4 receptor and the CCR5 co-receptor under the control of the CMV promoter as described previously. Briefly, MAGIC-5 cells were infected with diluted virus stock (100 blue forming units) in the presence of increasing concentrations of RT inhibitors, cultured for 48 h, fixed, and stained with X-Gal (5-bromo-4-chloro-3-indolyl-β-D-galacto-pyranoside). The stained cells were counted under a light microscope.

Assay [2] has as its system HIV-1 WT. As to the kind of experiment: Single-cycle drug susceptibility assay (MAGIC-5 cells), recombinant WT clone. As to conditions: Human immunodeficiency virus 1, Table S2. The protocol:
(§2) The NL4-3-based molecular clone was constructed by replacing the pol-coding region with the HIV-1 BH10 strain. […] Each molecular clone was transfected into COS-7 cells. Cells were grown for 48 h, and culture supernatants were harvested and stored at −80°C until use.
as §1

For assay [3], the system named is HIV-1 K70E. Put plainly: Single-cycle drug susceptibility assay (MAGIC-5 cells). The procedure:
as §2, §1

Assay [4] relates to HIV-1 K70G. The assay is described as above. The protocol: as §2, §1
In assay [5] the test system is HIV-1 K70N. Described as above. The protocol: as §2, §1
In assay [6] the test system is HIV-1 K70Q. The assay is described as above. Conditions: Human immunodeficiency virus 1, MAGIC-5; K70Q. The procedure:
as §2, §1

The test system of assay [7] is HIV-1 K70R. The assay is described as above. The protocol: as §2, §1
The subject of assay [8] is HIV-1 K70T. The assay is described as above. The procedure: as §2, §1
Assay [9] relates to HIV-1 Q151Mc/K70E. Described as above. The procedure:
as §2, §1

The subject of assay [10] is HIV-1 Q151Mc/K70G. The description is as above. The protocol: as §2, §1
The test system of assay [11] is HIV-1 Q151Mc/K70N. Described as above. The protocol:
as §2, §1

For assay [12], the system named is HIV-1 Q151Mc/K70Q. The description is as above. The procedure:
as §2, §1

Assay [13] has as its system HIV-1 Q151Mc/K70R. The assay is described as above. The procedure: as §2, §1
Assay [14] has as its system HIV-1 Q151Mc/K70T. Described as above. The protocol: as §2, §1
Assay [15] deals with HIV-1 Q151Mc. Described as above. Conditions: Human immunodeficiency virus 1, MAGIC-5. The procedure:
as §2, §1

Assay [16] deals with HIV-1 clinical isolate 1 (Q151Mc-containing). Put plainly: Single-cycle drug susceptibility assay (MAGIC-5 cells), clinical isolate 1. As to conditions: Human immunodeficiency virus 1; clinical isolate 1, MAGIC-5 cells. The protocol:
(§3) HIV was isolated from fresh plasma immediately after collection of clinical samples from study participants at the outpatient clinic of the AIDS Clinical Center (ACC), International Medical Center of Japan. The Institutional Review Board approved this study (IMCJ-H13-80) and a written consent was obtained from all participants.
as §1

The test system of assay [17] is HIV-1 clinical isolate 2 (Q151Mc + K70Q). Put plainly: Single-cycle drug susceptibility assay (MAGIC-5 cells), clinical isolate 2. As to conditions: Human immunodeficiency virus 1; clinical isolate 2, MAGIC-5 cells. The protocol:
as §3, §1

Where [18] appears, read: Human immunodeficiency virus 1, NL43, WT, MAGIC-5 cells, Table S1, read-out: EC50.

As usually defined, the EC50 is the midpoint of the concentration-response curve. Regarding `Nc1ccn([C@@H]2CS[C@H](CO)O2)c(=O)n1` [3TC, lamivudine], the EC50 in [1] (setting [18]) was found to be 1.4 ± 0.15 µM; in assay [2], 1.4 ± 0.16 µM; in assay [3] (Human immunodeficiency virus 1, MAGIC-5, K70E) it was 16 ± 2.1 µM; in assay [4] (Human immunodeficiency virus 1, MAGIC-5, K70G), 26 ± 0.58 µM; in [5] (Human immunodeficiency virus 1, MAGIC-5, K70N) it was 2.2 ± 0.25 µM; in assay [6], 4.6 ± 0.53 µM. Moreover, the EC50 in assay [7] (Human immunodeficiency virus 1, MAGIC-5, K70R) stood at 2.5 ± 0.46 µM; in assay [8] (Human immunodeficiency virus 1, MAGIC-5, K70T) it was 4.3 ± 0.29 µM; in [9] (Human immunodeficiency virus 1, MAGIC-5, Q151Mc/K70E), 11 ± 1.4 µM; in assay [10] (Human immunodeficiency virus 1, MAGIC-5, Q151Mc/K70G) it was 46 ± 2.5 µM; in assay [11] (Human immunodeficiency virus 1, MAGIC-5, Q151Mc/K70N), 15 ± 1.7 µM; in assay [12] (Human immunodeficiency virus 1, MAGIC-5, Q151Mc/K70Q), 81 ± 0.08 µM. Moreover, the EC50 in [13] (Human immunodeficiency virus 1, MAGIC-5, Q151Mc/K70R) is 16 ± 1.5 µM; in assay [14] (Human immunodeficiency virus 1, MAGIC-5, Q151Mc/K70T), 12 ± 2.5 µM; in assay [15] it was 29 ± 3.2 µM. Moreover, the “Fold increase in EC50 compared to HIV-1 WT” value in assay [3] (K70E vs WT) is listed as “(11) fold”; in [4] (K70G vs WT) it was “(19) fold”; in assay [5] (K70N vs WT), “(1.6) fold”; in [7] (K70R vs WT), “(1.8) fold”; in [8] (K70T vs WT), “(3.1) fold”. Further, the “Fold increase in EC50 compared to HIV-1 Q151Mc” value was “(0.4) fold” in assay [9] (Q151Mc/K70E vs Q151Mc); “(1.6) fold” in assay [10] (Q151Mc/K70G vs Q151Mc); “(0.5) fold” in assay [11] (Q151Mc/K70N vs Q151Mc); “(2.8) fold” in [12] (Q151Mc/K70Q vs Q151Mc); “(0.6) fold” in assay [13] (Q151Mc/K70R vs Q151Mc); “(0.4) fold” in assay [14] (Q151Mc/K70T vs Q151Mc).

In the case of `Cc1cn([C@H]2C[C@H](N=[N+]=[N-])[C@@H](CO)O2)c(=O)[nH]c1=O` [AZT, zidovudine], the EC50 in [1] (Human immunodeficiency virus 1, NL43, MAGIC-5) came to 0.023 ± 0.002 µM.

In the case of `O=C1Nc2ccc(Cl)cc2[C@@](C#CC2CC2)(C(F)(F)F)O1` [EFV, efavirenz], the values for the EC50 in [1] (setting [18]), in [16] and in [17] were 0.002 ± 0.0001 µM, greater than 1 µM and greater than 1 µM, respectively.
